This is an account of results in ChEMBL document CHEMBL5380773, “Novel Feleucin-K3-Derived Peptides Modified with Sulfono-γ-AA Building Blocks Targeting Pseudomonas aeruginosa and Methicillin-Resistant Staphylococcus aureus Infections” (J Med Chem, 2023).

Activity calls are given as the source filed them. No cut-off for these calls is given here. Numbered stars: 1 amine (or outer) side, 2 acyl side, 3 side chain; on linkers, the order of the positions; unused ones are H or OH. Square brackets hold non-standard residues; d marks the D form. Peptide text beside a SMILES is read from it. * marks the point of attachment. X26 = O=C(O)c1cc(NC(=S)c2ccc(S(=O)(=O)*)cc2)ccc1-c1c2ccc(=O)cc-2oc2cc(O)ccc12; Benzenesulfonyl(2-NO2) = O=[N+]([O-])c1ccccc1S(=O)(=O)*; Benzenesulfonyl(4-OMe) = COc1ccc(S(=O)(=O)*)cc1; Benzenesulfonyl(4-F) = O=S(=O)(c1ccc(F)cc1)*; X3 = N[C@@H](Cc1ccccc1)CN(CC(=O)[*:2])[*:1]; X2 = CC(C)C[C@H](N)CN(CC(=O)[*:2])[*:1]; X20 = O=S(=O)(c1ccc(Cl)cc1)*; Tos = Cc1ccc(S(=O)(=O)*)cc1

Data set [1] deals with Staphylococcus aureus. As to the kind of experiment: Antimicrobial activity against methicillin resistant Staphylococcus aureus ATCC 33591 infected in BALB/c mouse assessed as reduction in sessile bacteria attached on catheters surface at 0.25 to 1 mg/kg infected with bacteria for 2 hrs prior to compound addition on 1, 24 and 48 hrs and measured after 72 hrs […]. In kind it is functional, organism-based. The conditions noted are these: dose 0.25-1 mg/kg.

The next data set deals with Erythrocyte. As to the kind of experiment: Hemolytic activity against mouse red blood cells incubated for 1 hr. In kind it is toxicity, cell-based.
Data set [2] is described as follows: Stability in mouse serum assessed as half life incubated for 6 hrs by HPLC analysis. In kind it is ADME, cell-free.
For the next data set, the system named is Cell membrane. The data set can be described thus: Induction of membrane disruption in Pseudomonas aeruginosa ATCC 27853 after 30 mins by confocal laser scanning microscopic analysis. In kind it is subcellular.
For data set [3], the system named is Staphylococcus aureus. As to the kind of experiment: Induction of resistant development in Staphylococcus aureus ATCC 25923 assessed as fold increase by serial passage assay. The data set is classed as functional.
The subject of data set [4] is Staphylococcus aureus. The data set can be described thus: Induction of resistant development in methicillin resistant Staphylococcus aureus ATCC 33591 assessed as fold increase by serial passage assay. The data set is classed as functional.
Data set [5] relates to Pseudomonas aeruginosa. The data set can be described thus: Antimicrobial activity against multidrug resistant Pseudomonas aeruginosa ATCC 27853 assessed as fold increase incubated for 18 hrs by microdilution method. The data set is classed as functional.
Data set [6] relates to Pseudomonas aeruginosa. As to the kind of experiment: Induction of resistant development in Pseudomonas aeruginosa ATCC 27853 assessed as fold increase in MIC after 20 days. In kind it is functional. The settings on record: time 20 day.

As to `CN[C@H](CC(C)C)C(=O)N[C@H]1C(=O)N[C@@H](CC(N)=O)C(=O)N[C@H]2C(=O)N[C@H]3C(=O)N[C@H](C(=O)N[C@H](C(=O)O)c4cc(O)cc(O)c4-c4cc3ccc4O)[C@H](O)c3ccc(c(Cl)c3)Oc3cc2cc(c3O[C@@H]2O[C@H](CO)[C@@H](O)[C@H](O)[C@H]2O[C@H]2C[C@](C)(N)[C@H](O)[C@H](C)O2)Oc2ccc(cc2Cl)[C@H]1O`, the outcome in the data set with Staphylococcus aureus [1] was Active.
The half-life is how long it takes for the measured level to halve. As to `Cc1ccc(S(=O)(=O)N(CC(=O)N[C@@H](CCCCN)C(=O)N[C@@H](CC(C)C)C(=O)N[C@@H](CC(C)C)C(=O)N[C@@H](CCCCN)C(=O)N[C@@H](CCCCN)C(=O)N[C@@H](CC(C)C)C(=O)N[C@@H](CC(C)C)C(N)=O)C[C@@H](N)Cc2ccccc2)cc1` (Tos-[X3]KLLKKLL-NH2), the MHC with Erythrocyte turned out to be 256 µg/mL. In addition, the half-life in data set [2] was 6.97 h.
Compound `CC(C)C[C@H](NC(=O)[C@H](CC(C)C)NC(=O)[C@H](CCCCN)NC(=O)[C@H](CCCCN)NC(=O)[C@H](CC(C)C)NC(=O)[C@H](CC(C)C)NC(=O)[C@H](CCCCN)NC(=O)CN(C[C@@H](N)Cc1ccccc1)S(=O)(=O)c1ccc(Cl)cc1)C(N)=O` (X20-[X3]KLLKKLL-NH2) came in with an MHC with Erythrocyte of 64 µg/mL.
In the case of `CC(C)C[C@H](N)CN(CC(=O)N[C@@H](CCCCN)C(=O)N[C@@H](CC(C)C)C(=O)N[C@@H](CC(C)C)C(=O)N[C@@H](CCCCN)C(=O)N[C@@H](CCCCN)C(=O)N[C@@H](CC(C)C)C(=O)N[C@@H](CC(C)C)C(N)=O)S(=O)(=O)c1ccc(C(=S)Nc2ccc(-c3c4ccc(=O)cc-4oc4cc(O)ccc34)c(C(=O)O)c2)cc1` (X26-[X2]KLLKKLL-NH2), the result in the data set on Cell membrane was Active.
Consider `CC(C)C[C@H](N)CN(CC(=O)N[C@@H](CCCCN)C(=O)N[C@@H](CC(C)C)C(=O)N[C@@H](CC(C)C)C(=O)N[C@@H](CCCCN)C(=O)N[C@@H](CCCCN)C(=O)N[C@@H](CC(C)C)C(=O)N[C@@H](CC(C)C)C(N)=O)S(=O)(=O)c1ccccc1[N+](=O)[O-]` ({Benzenesulfonyl(2-NO2)}-[X2]KLLKKLL-NH2), for which, in the data set with Erythrocyte, the MHC was determined as 256 µg/mL.
For the compound `CC(C)C[C@H](NC(=O)[C@H](CC(C)C)NC(=O)[C@H](CCCCN)NC(=O)[C@H](CCCCN)NC(=O)[C@H](CC(C)C)NC(=O)[C@H](CC(C)C)NC(=O)[C@H](CCCCN)NC(=O)CN(C[C@@H](N)Cc1ccccc1)S(=O)(=O)c1ccccc1[N+](=O)[O-])C(N)=O` ({Benzenesulfonyl(2-NO2)}-[X3]KLLKKLL-NH2), in the data set on Erythrocyte, the MHC worked out at 256 µg/mL.
Still for that read-out and setting: for `CC(C)C[C@H](N)CN(CC(=O)N[C@@H](CCCCN)C(=O)N[C@@H](CC(C)C)C(=O)N[C@@H](CC(C)C)C(=O)N[C@@H](CCCCN)C(=O)N[C@@H](CCCCN)C(=O)N[C@@H](CC(C)C)C(=O)N[C@@H](CC(C)C)C(N)=O)S(=O)(=O)c1ccc(F)cc1` ({Benzenesulfonyl(4-F)}-[X2]KLLKKLL-NH2) the value was 256 µg/mL; for `CC(C)C[C@H](NC(=O)[C@H](CC(C)C)NC(=O)[C@H](CCCCN)NC(=O)[C@H](CCCCN)NC(=O)[C@H](CC(C)C)NC(=O)[C@H](CC(C)C)NC(=O)[C@H](CCCCN)NC(=O)CN(C[C@@H](N)Cc1ccccc1)S(=O)(=O)c1ccc(F)cc1)C(N)=O` ({Benzenesulfonyl(4-F)}-[X3]KLLKKLL-NH2), 256 µg/mL; for `COc1ccc(S(=O)(=O)N(CC(=O)N[C@@H](CCCCN)C(=O)N[C@@H](CC(C)C)C(=O)N[C@@H](CC(C)C)C(=O)N[C@@H](CCCCN)C(=O)N[C@@H](CCCCN)C(=O)N[C@@H](CC(C)C)C(=O)N[C@@H](CC(C)C)C(N)=O)C[C@@H](N)CC(C)C)cc1` ({Benzenesulfonyl(4-OMe)}-[X2]KLLKKLL-NH2), 256 µg/mL.
`COc1ccc(S(=O)(=O)N(CC(=O)N[C@@H](CCCCN)C(=O)N[C@@H](CC(C)C)C(=O)N[C@@H](CC(C)C)C(=O)N[C@@H](CCCCN)C(=O)N[C@@H](CCCCN)C(=O)N[C@@H](CC(C)C)C(=O)N[C@@H](CC(C)C)C(N)=O)C[C@@H](N)Cc2ccccc2)cc1` ({Benzenesulfonyl(4-OMe)}-[X3]KLLKKLL-NH2): in the data set with Erythrocyte, the MHC is 256 µg/mL.
Turning to `CC1(C)S[C@@H]2[C@H](NC(=O)[C@H](N)c3ccc(O)cc3)C(=O)N2[C@H]1C(=O)O` [AMOXICILLIN], the “fold change (FC)” value in the data set with Staphylococcus aureus [3] and in the data set with Staphylococcus aureus [4] was 4096 each time.
With `C[C@H]1[C@H](NC(=O)/C(=N\OC(C)(C)C(=O)O)c2csc(N)n2)C(=O)N1S(=O)(=O)O` [AZTREONAM], the “fold change (FC)” value is reported as 2 with Pseudomonas aeruginosa [5] and 32 in the data set with Pseudomonas aeruginosa [6].
In the case of `CC(C)(O/N=C(\C(=O)N[C@@H]1C(=O)N2C(C(=O)[O-])=C(C[n+]3ccccc3)CS[C@H]12)c1csc(N)n1)C(=O)O` [CEFTAZIDIME], the “fold change (FC)” value in the data set on Pseudomonas aeruginosa [6] was determined as 256.
On to `C[C@@H](O)[C@H]1C(=O)N2C(C(=O)O)=C(SCCNC=N)C[C@H]12` [IMIPENEM ANHYDROUS], for which the “fold change (FC)” value is listed as 1 with Pseudomonas aeruginosa [5] and 16 with Pseudomonas aeruginosa [6].
In the case of H-FLKLLKKLL-NH2, in the data set on Erythrocyte, the MHC came out at 256 µg/mL. Also, the half-life in data set [2] was 1.28 h.
